One block for each molecule: values may come before it.
Columns and labels:
SO and BDL rats = assay: Y-maze test during AZT treatment; format: in vivo, rat
BCRP [1] = molecular target: T1, BCRP (Homo sapiens, UniProt Q9UNQ0); conditions: AZT 1 μM, 120 min
T1 sequence (Q9UNQ0 1-655): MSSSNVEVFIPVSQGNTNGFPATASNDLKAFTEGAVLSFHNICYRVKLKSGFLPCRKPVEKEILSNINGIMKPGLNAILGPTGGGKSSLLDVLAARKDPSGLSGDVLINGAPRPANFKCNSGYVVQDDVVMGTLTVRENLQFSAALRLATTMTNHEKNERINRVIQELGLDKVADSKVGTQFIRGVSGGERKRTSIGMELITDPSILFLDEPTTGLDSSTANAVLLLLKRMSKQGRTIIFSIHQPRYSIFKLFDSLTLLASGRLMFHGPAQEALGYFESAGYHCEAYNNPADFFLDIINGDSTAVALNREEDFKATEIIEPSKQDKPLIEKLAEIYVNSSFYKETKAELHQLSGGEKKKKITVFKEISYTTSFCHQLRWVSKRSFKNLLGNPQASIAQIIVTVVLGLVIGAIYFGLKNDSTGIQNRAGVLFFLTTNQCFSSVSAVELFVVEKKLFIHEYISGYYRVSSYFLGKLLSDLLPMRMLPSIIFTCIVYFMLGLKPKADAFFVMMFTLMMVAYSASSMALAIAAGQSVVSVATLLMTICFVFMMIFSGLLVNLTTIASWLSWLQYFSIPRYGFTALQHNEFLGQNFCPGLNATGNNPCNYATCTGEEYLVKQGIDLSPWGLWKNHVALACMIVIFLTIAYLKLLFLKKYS

[2] = cited from earlier work
BCRP [3] = molecular target: BCRP (Homo sapiens, UniProt Q9UNQ0); conditions: HCMEC/D3 cells, siRNA for human ABCG2 vs CON
brain BCRP = molecular target: T2, brain BCRP (Rattus norvegicus, UniProt Q80W57); conditions: normal rats
T2 sequence (Q80W57 1-657): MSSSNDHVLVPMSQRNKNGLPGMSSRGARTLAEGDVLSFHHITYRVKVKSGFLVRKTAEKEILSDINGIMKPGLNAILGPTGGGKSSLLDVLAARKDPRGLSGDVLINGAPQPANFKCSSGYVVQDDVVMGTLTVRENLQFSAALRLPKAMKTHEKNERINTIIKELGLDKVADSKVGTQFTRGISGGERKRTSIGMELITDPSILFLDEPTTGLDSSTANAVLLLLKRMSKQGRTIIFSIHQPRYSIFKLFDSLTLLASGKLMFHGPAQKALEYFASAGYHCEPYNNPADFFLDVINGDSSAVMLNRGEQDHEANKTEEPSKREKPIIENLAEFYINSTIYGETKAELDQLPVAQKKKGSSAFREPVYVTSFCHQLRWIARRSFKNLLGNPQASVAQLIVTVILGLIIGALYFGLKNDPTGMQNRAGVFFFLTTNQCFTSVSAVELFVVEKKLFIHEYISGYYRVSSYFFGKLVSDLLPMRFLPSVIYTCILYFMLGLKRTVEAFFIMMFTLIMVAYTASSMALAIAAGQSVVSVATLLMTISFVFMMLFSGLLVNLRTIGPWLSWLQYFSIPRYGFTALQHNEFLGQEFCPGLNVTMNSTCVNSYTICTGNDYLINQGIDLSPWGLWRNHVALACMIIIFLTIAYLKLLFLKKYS

BCRP [4] = molecular target: T1, BCRP; conditions: not told; cited from earlier work
MDCKII-WT cells = assay: Uptake of AZT in MDCKII-WT cells; format: in vitro ADME, canine; conditions: wild-type MDCKII cells, AZT 1 μM, 120 min

Y-maze percentage of alternation of arm entrance (SO and BDL rats; BDL rats treated with AZT 100 mg/kg every day i.v. compared with SO rats): significantly decreased
impairment of cognitive function by AZT (SO and BDL rats; SO rats, AZT 100 mg/kg every day i.v., Y-maze and shuttle box): did not occur
uptake of AZT in MDCKII-BCRP cells, % of that in MDCKII-WT cells (BCRP [1]): approximately 50.0%
uptake of AZT after BCRP siRNA knockdown (BCRP [3]): significantly increased
Molecule: Cc1cn([C@H]2C[C@H](N=[N+]=[N-])[C@@H](CO)O2)c(=O)[nH]c1=O [AZT, Zidovudine]
Y-maze total number of entries, effect of AZT treatment (SO and BDL rats; BDL rats, AZT 100 mg/kg every day i.v., day 5 of treatment): further enhanced by AZT treatment, but the difference was not significant
plasma protein binding [2]: 10%

increase in Kin of AZT with novobiocin (brain BCRP; cortex, AZT 25 μM + novobiocin 200 μM, 2 min perfusion): not significant
Molecule: CO[C@@H]1[C@@H](OC(N)=O)[C@@H](O)[C@H](Oc2ccc3c(O)c(NC(=O)c4ccc(O)c(CC=C(C)C)c4)c(=O)oc3c2C)OC1(C)C [novobiocin]

Molecule: CC(C)(C)NC(=O)[C@@H]1C[C@@H]2CCCC[C@@H]2CN1C[C@@H](O)[C@H](Cc1ccccc1)NC(=O)[C@H](CC(N)=O)NC(=O)c1ccc2ccccc2n1 [saquinavir]
efflux by BCRP (BCRP [4]): BCRP also mediates the efflux

Molecule: Ko143
effect of incubation with Ko143 on uptake of AZT (MDCKII-WT cells): did not affect
effect of coadministration of Ko143 on influx of AZT into the hippocampus (brain BCRP): markedly increased

Source: article PMC7470810 (Acta Pharmacologica Sinica, 2019)
